{
  "source": "patent US20190000789A1",
  "about": "“COMPOSITION AND METHOD FOR TREATING INFECTIONS CAUSED BY VANCOMYCIN-RESISTANT INFECTIOUS AGENTS IN A SUBJECT” (priority 2015, published 2019)",
  "key": {"[1]": {"tested_on": "S. coelicolor LAG2 ΔvanX (LAG4)", "assay": "MIC of vancomycin on MM agar plates with added D-Ala", "type": "cell-based", "settings": "Streptomyces coelicolor", "excerpt": "VanX effectively eradicates the D-Ala-D-Ala dipeptide, thereby counteracting the accumulation of wild-type precursors and supporting vancomycin resistance (Lessard and Walsh, 1999; Tan et al., 2002). Therefore, a vanX null mutant was created using a similar strategy as for ddl, replacing the coding region of vanX by the apramycin resistance cassette aacC4. The mutant was created in both the parental strain S. coelicolor M145 and in its ddl suppressor mutant LAG2, generating LAG3 (M145 ΔvanX) and LAG4 (M145 Δddl ΔvanX vanS::IS466A), respectively.\nLAG4 produced 20% wt precursors prior to the addition of D-Ala.\n(§1) Escherichia coli strains JM109 (Sambrook et al., 1989) and ET12567 (Kieser et al., 2000) were used for routine cloning procedures and for extracting non-methylated DNA, respectively. Cells of E. coli were grown in Luria-Berani broth (LB) at 37° C. Streptomyces coelicolor A3(2) M145 was the parent of all mutants described in this work. All media and routine Streptomyces techniques were carried out as described (Kieser et al., 2000). SFM (soy flour mannitol) agar plates were used for propagating S. coelicolor strains and to prepare spore suspensions. For liquid-grown cultures, S. coelicolor mycelia were grown in normal minimal media with phosphate (NMMP) supplemented with 1% (w/v) mannitol as the sole carbon source. The MIC of vancomycin against S. coelicolor M145 and its mutant derivatives were determined by growth on minimal media (MM) agar plates supplemented with 1% mannitol as the sole carbon source, and 0, 2, 4, 8, 16, 32, 64, 128, 256 or 512 μg/ml vancomycin, in combination with 0, 1, 5, 10 or 50 mM of D-Ala or L-Ala. The vanX deletion mutants have been tested with 1, 5, 10, 50 and 100 μM D-Ala and L-Ala."}, "S. coelicolor M145 [2]": {"tested_on": "S. coelicolor M145", "assay": "MIC of vancomycin on MM agar plates with added D-Ala or L-Ala", "type": "cell-based, Streptomyces coelicolor", "settings": "for MIC: Streptomyces coelicolor", "method": "The naturally vancomycin-resistant model organism S. coelicolor M145 was used as the initial test system. The strain was grown on solid minimal medium (MM) agar plates with increasing amounts of D-Ala and vancomycin. D-Ala was thereby added in concentrations of 5, 10 and 50 mM and the effect on the MIC of vancomycin assessed. As a first control, L-Ala was added and, as a second control, no amino acids were added. […] This was not altered when the culture media were supplemented with up to 50 mg/ml L-Ala (Table 1 and FIG. 6).\nas §1"}, "S. coelicolor M145 [3]": {"tested_on": "S. coelicolor M145", "assay": "LC-MS analysis of peptidoglycan precursors", "type": "cell-based, Streptomyces coelicolor", "settings": "M145 grown with 10 μg/ml vancomycin", "method": "(§2) In order to get more insights into the synthesis of vancomycin-sensitive (i.e., wild-type) or the alternate vancomycin-resistant peptidoglycan, the pool of peptidoglycan precursors was analyzed by Liquid Chromatography coupled to Mass Spectrometry (LC-MS). When cells produce wild-type PG, only the MurNac-pentapeptide with a D-Ala-D-Ala terminus are detected, while vancomycin-resistant PG precursors have a D-Ala-D-Lac terminus. To analyze the precursors produced in S. coelicolor M145 and its mutant derivatives LAG1 (Δddl) and LAG2 (Δddl vanS::IS466A) in the presence or absence of vancomycin, the strains were grown until exponential phase, after which the cultures were harvested, washed and the precursors extracted with 5% TCA. The supernatants were desalted, concentrated and analyzed by LC-MS (see Materials and Methods section).\n(§3) For the precursor isolation and identification, a modification of the method described previously by Hong and colleagues (Hong et al., 2004) was used. 10 μg vancomycin was added to the strains at the moment of inoculation. The strains were grown in NMMP (1% (w/v) Mannitol, 50 mM MgCl2) until mid-log phase (OD-0.3-0.4) and mycelia were harvested by centrifugation at 4° C. and washed in 0.9% NaCl. […] The elution was monitored at 254 nm and monitored by the sizes eluted (1193.8-1195.3)."}, "[4]": {"tested_on": "S. coelicolor LAG1 (ddl null mutant)", "assay": "LC-MS analysis of peptidoglycan precursors", "type": "cell-based, Streptomyces coelicolor", "settings": "LAG1 grown in the presence of vancomycin", "method": "as §2, §3"}},
  "note": "Where two headings read alike, the source gives them in different places.",
  "data": [
    {"smiles": "CN[C@H](CC(C)C)C(=O)N[C@H]1C(=O)N[C@@H](CC(N)=O)C(=O)N[C@H]2C(=O)N[C@H]3C(=O)N[C@H](C(=O)N[C@H](C(=O)O)c4cc(O)cc(O)c4-c4cc3ccc4O)[C@H](O)c3ccc(c(Cl)c3)Oc3cc2cc(c3O[C@@H]2O[C@H](CO)[C@@H](O)[C@H](O)[C@H]2O[C@H]2C[C@](C)(N)[C@H](O)[C@H](C)O2)Oc2ccc(cc2Cl)[C@H]1O", "note": "[vancomycin]", "values": [
      {"measurement": "MIC", "setting": "[1]; read-out: MIC of vancomycin, LAG2 ΔvanX, 0 μM D-Ala", "value": 64, "unit": "µg/mL"},
      {"measurement": "MIC", "setting": "[1]; read-out: MIC of vancomycin, LAG2 ΔvanX, 10 μM D-Ala", "value": 32, "unit": "µg/mL"},
      {"measurement": "MIC", "setting": "[1]; read-out: MIC of vancomycin, LAG2 ΔvanX, 50 μM D-Ala", "value": 8, "unit": "µg/mL"},
      {"measurement": "MIC", "setting": "[1]; read-out: MIC of vancomycin, LAG2 ΔvanX, 100 μM D-Ala", "value": 2, "unit": "µg/mL"},
      {"measurement": "reduction of the MIC of vancomycin", "setting": "S. coelicolor M145 [2]; M145, 10 mM D-Ala", "value": 4, "unit": "fold"},
      {"measurement": "reduction of the MIC of vancomycin", "setting": "S. coelicolor M145 [2]; M145, 50 mM D-Ala", "value": 32, "unit": "fold"},
      {"measurement": "MIC", "setting": "S. coelicolor M145 [2]; M145, read-out: MIC of vancomycin, M145, 0 mM D-Ala", "value": 128, "unit": "µg/mL"},
      {"measurement": "MIC", "setting": "S. coelicolor M145 [2]; M145, read-out: MIC of vancomycin, M145, 5 mM D-Ala", "value": 32, "unit": "µg/mL"},
      {"measurement": "MIC", "setting": "S. coelicolor M145 [2]; M145, read-out: MIC of vancomycin, M145, 10 mM D-Ala", "value": 32, "unit": "µg/mL"},
      {"measurement": "MIC", "setting": "S. coelicolor M145 [2]; M145, read-out: MIC of vancomycin, M145, 50 mM D-Ala", "value": 4, "unit": "µg/mL"},
      {"measurement": "precursors of the vancomycin-insensitive variant (D-Ala-D-Lac)", "setting": "S. coelicolor M145 [3]", "value": 91.5, "unit": "%"},
      {"measurement": "precursors containing the terminal D-Ala-D-Lac dipeptide", "setting": "[4]", "value": 95.7, "unit": "%"}
    ]}
  ]
}
